Ki and Kd data for three molecules are collected here from paper PMC11849186 (BMC Biology, 2025).

The target in experiment [1] is T1, Pheromone binding protein 5 (Pbp5) (Bactrocera dorsalis, UniProt A0A6I9V7R6).
T1 sequence (A0A6I9V7R6 21-147): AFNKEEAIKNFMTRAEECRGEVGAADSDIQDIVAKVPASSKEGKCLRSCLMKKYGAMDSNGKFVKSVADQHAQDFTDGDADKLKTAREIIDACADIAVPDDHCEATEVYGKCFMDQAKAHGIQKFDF
The experiment can be described thus: competitive fluorescence displacement of 1-NPN.

Experiment [2] deals with T2, Pheromone binding protein 5 (Pbp5) mutant (Bactrocera dorsalis, UniProt A0A6I9V7R6, F147A/F31A/F95A/I28A).
T2 sequence (A0A6I9V7R6 21-147 I28A/F31A/F95A/F147A): T1 sequence (A0A6I9V7R6 21-147)
The experiment in a line: direct fluorescence binding assay.

Experiment [3] deals with T1, Pheromone binding protein 5 (Pbp5). The experiment in a line: direct fluorescence binding assay.

The Ki is the dissociation constant of the complex between target and ligand, obtained from inhibition or displacement. `Cc1nc(C)c(C)nc1C` [TTMP, tetramethylpyrazine]: in experiment [1], the Ki was found to be 0.21 µM.

For orientation: Kd means the equilibrium constant for the complex coming apart. Higher therefore signals weaker binding. As to `c1ccc(Nc2cccc3ccccc23)cc1` [1-NPN, N-phenyl-1-naphthylamine], the Kd in experiment [2] was found to be 33.9 µM; in experiment [3], 10.6 µM.

With `Cc1cnc(C)c(C)n1` [TMP, trimethylpyrazine], in experiment [1], the affinity corresponds to a Ki of 0.224 µM.
